{
  "source": "patent US9914910B2",
  "about": "“Methods of preserving and protecting pancreatic beta cells and treating or preventing diabetes by inhibiting NOX-1” (Eastern Virginia Medical School, priority 2013, dated 2018)",
  "key": {"[1]": {"test_system": "NOX-1 protein in piglet islets", "assay": "PIC-induced NOX-1 protein in piglet islets", "type": "cell-based", "conditions": "1 μM, 18 hours", "experimental": "The methods disclosed herein may also be utilized in the preparation of viable xenotransplantable porcine islets and/or the treatment of a mammalian patient (including humans) suffering from diabetes involving the transplantation into the mammal of viable porcine islets capable of producing insulin within the host. Piglet islets are candidates for xenotransplantation of piglet islets with cytokines (PIC; TNF, IL-1, IFN) induced expression of NOX-1 protein. […] Islets were treated for 18 hours. Data supports feedforward regulation of NOX-1 expression and effective uncoupling of this pathway in piglet islets by inhibition of NOX-1 activity."}, "[2]": {"test_system": "MCP-1, IL-12p40, IL-12 p35, IFNγ gene expression in primary mouse islets", "assay": "Cytokine-induced target gene expression (real time PCR)", "type": "cell-based", "conditions": "NCTT-1 100 nM, ML171 1 μM", "experimental": "(§1) Total RNA was isolated using the RNeasy Mini Kit (Qiagen, Valencia, Calif.) and cDNA prepared using MMLV reverse transcriptase (Life Technologies) and random hexamers (Life Technologies). Jump Start Taq polymerase (Life Technologies) was used in PCR reactions. […] RT-PCR reactions were performed in triplicate (CFX96 Bio-Rad, Hercules, Calif.). Taqman primers (Life Technologies) were also used. Data was normalized to the housekeeping gene GAPDH and analyzed using the 2-ΔΔCT method.\nData is quantitative real time PCR gene expression analysis from triplicate experiments performed in replicate. Fold induction in gene expression over control (non cytokine-treated) islets is graphed."}, "[3]": {"test_system": "beta cells", "assay": "Pro-caspase 3 cleavage after PIC, beta cell survival", "type": "cell-based", "conditions": "C1 100 nM, ML171 10 μM", "experimental": "Loss of beta cell viability in response to inflammatory cytokines was assessed by measurement of caspase 3 activation and quantified microscopy. […] Measured by pro-caspase 3 cleavage (A) or quantified microscopy of YO-PRO-1 stained cells (B). […] Shown are RFU from fluorescent capase3 substrate, ##p<0.01 relative to control; *p<0.05; **p<0.01 relative to PIC (A) and Microscopic apoptotic index ###p<0.001 relative to control; ***p<0.001; **p<0.01 relative to PIC (B)."}, "[4]": {"test_system": "INS-1 cells", "assay": "Apoptosis by YO-PRO-1 fluorescence microscopy after PIC", "type": "cell-based, rat", "conditions": "INS-1, PIC 24 hours, p<0.001", "experimental": "(§2) B. Fluorescence microscopy: Stimulated cells or islets were washed in cold PBS, and incubated for 30 mins at 40 C with cold PBS containing 1 μg/mL propidium iodide and 0.1 μM YO-PRO-1 (Life Technologies). For cell lines, five randomly fields per well were analyzed. For islets, all islets (>1000 um2 in size) were analyzed. Densitometric fluorescent value for YO-PRO-1 (green channel) was normalized to background and expressed proportional to cell occupied area (phase contrast). Images captured across three channels with Axiophot (Zeiss, Jena, Germany) with Axiovision (Zeiss) image analysis."}, "[5]": {"test_system": "βTC-3 cells", "assay": "Glucose-stimulated insulin secretion (GSIS) after PIC", "type": "cell-based, mouse", "conditions": "βTC-3, 1 mM vs 16 mM glucose, p<0.01", "experimental": "(§3) Treated islets or cells then were washed with PBS and placed in 1 mL serum-free Kreb-Ringer buffer (115 mM NaCl, 24 mM NaHCO3, 5 mM KCl, 1 mM MgCl2, and 25 mM HEPES) for 1 hour at 370 C. Low (1 mM) or high (16 mM) glucose was added for […] for 30 min. Insulin levels in media were measured by ELISA (Mercodia, Winston Salem, N.C.) as per the manufacturer's instructions."}, "[6]": {"test_system": "NOX-1 gene expression in primary human donor islets", "assay": "PIC-induced NOX-1 gene expression (RT-PCR)", "type": "cell-based", "conditions": "1 μM ML171", "experimental": "as §1"}, "[7]": {"test_system": "primary mouse islets", "assay": "Apoptosis by YO-PRO-1 fluorescence microscopy after PIC", "type": "cell-based", "experimental": "Human donor islets were obtained from integrated islet distribution project (http://iidp.coh.org) and cultured in CMRL media (Mediatech, Manassas, Va.). Mouse islets were freshly isolated from 8-week old male C57BL/6J mice (Jackson Laboratory, Bar Harbor, Me.) by common bile duct cannulation and collagenase digestion. Islets were hand picked prior to use.\nas §2\nFIG. 1: Treatment of primary mouse islets with inflammatory cytokines (TNFα, IL-1β, IFNγ) induces islet/beta cell death (apoptosis) which can be measured in a fluorescent-based assay (green signal) using YO-PRO-1. […] The degree of cell death can be quantified by measuring the green signal. The graph is a quantitative analysis of multiple (≧4 visual fields in replicate wells). The detected relative fluorescent units (RFU) are plotted. […]"}, "[8]": {"test_system": "βTC-3 cells", "assay": "ROS measurement (DCF-DA) after PIC", "type": "cell-based, mouse", "conditions": "βTC-3, PIC 1 hour", "experimental": "βTC-3 cells were cultured in DMEM media (Life Technologies, Grand Island, N.Y.) supplemented with 18% fetal calf serum, 1% penicillin/streptomycin, 4 mM L-glutamine, 5.5 mM glucose, and 1 mM sodium pyruvate at 370 C with 5% CO2.\nCells treated for 1 hour were then washed with PBS prior to addition of 10 μM 6-Carboxy-2′,7′-Dichlorodihydrofluorescein Diacetate, Di(Acetoxymethyl ester) (DCF-DA, Life Technologies) for 30 min at 370 C. Post PBS wash cells were incubated at 370 C for 1 hour. Prior to fluorescence measurement (SpectraMax Molecular Devices, Sunnyvale, Calif.) at excitation 480 nm: emission 530 nm.\nElevation of cellular ROS in beta-cell lines INS-1 (rat beta-cell line) and βTC-3 (mouse beta-cell line) was evaluated by conversion of fluorescent substrate DCF-DA. Following one hour stimulation with a pro-inflammatory cytokine cocktail (PIC; IL-1β, TNF-α, and IFN-γ) detectable ROS elevated from control levels of 0.05±0.02 and 0.09±0.03 (INS-1 and βTC-3 respectively) to 0.25±0.04 and 0.23±0.03 (INS-1 and βTC-3 respectively). This increase was significant p<0.05 and p<0.01 (INS-1 and βTC-3 respectively)."}, "[9]": {"test_system": "INS-1 cells", "assay": "Glucose-stimulated insulin secretion (GSIS) after PIC", "type": "cell-based, rat", "conditions": "INS-1, 1 mM vs 16 mM glucose, p<0.05", "experimental": "as §3\nFIG. 4: Treatment of homogeneous rat beta cell line (INS-1) with pro-inflammatory cytokines (PIC) (TNFα, IL-1β, IFNγ) disrupts beta cell function measured by glucose-stimulated-insulin-secretion. Control (non cytokine-treated) cells respond to glucose elevation ([…]) by increasing insulin secretion. Insulin levels are plotted. In the presence of inflammatory cytokines (PIC) this response is lost and the dysfunctional cells ‘leak’ insulin. […] (*p<0.05, **p<0.01)."}},
  "data": [
    {"smiles": "CC(=O)c1ccc2c(c1)Nc1ccccc1S2", "note": "[ML171, 2-acetylphenothiazine]", "values": [
      {"measurement": "PIC-induced NOX-1 protein", "setting": "[1]", "result": "reduces PIC-induced NOX-1 protein"},
      {"measurement": "induction of gene IFNγ by PIC", "setting": "[2]", "result": "attenuated"},
      {"measurement": "induction of gene IL-12 p35 by PIC", "setting": "[2]", "result": "attenuated"},
      {"measurement": "induction of gene IL-12p40 by PIC", "setting": "[2]", "result": "attenuated"},
      {"measurement": "induction of gene MCP-1 by PIC", "setting": "[2]", "result": "attenuated"},
      {"measurement": "inflammatory cytokine-induced cell death, pro-caspase 3 cleavage", "setting": "[3]", "result": "significantly protected"},
      {"measurement": "PIC-induced apoptosis (YO-PRO-1)", "setting": "[4]", "result": "apoptosis was significantly decreased"},
      {"measurement": "glucose-stimulated insulin secretion with PIC", "setting": "[5]", "result": "restoring the glucose-sensitive insulin response"},
      {"measurement": "inhibition of PIC-induced expression of NOX-1", "setting": "[6]", "result": 50, "unit": "%"},
      {"measurement": "cytokine induced cell death (YO-PRO-1 RFU)", "setting": "[7]; 1 μM, p<0.05", "result": "protected islets from cytokine induced cell death"},
      {"measurement": "reduction of PIC induced islet apoptosis", "setting": "[7]; 10 μM, 24 hours", "result": "86%±4%"},
      {"measurement": "inhibition of PIC-induced ROS (DCFDA conversion)", "setting": "[8]", "result": "dose dependent inhibition"},
      {"measurement": "glucose-stimulated insulin secretion with PIC", "setting": "[9]", "result": "restoring the glucose-sensitive insulin response"}
    ]}
  ]
}
